24 compounds from patent US11708348B2, “Protease inhibitors for treatment of coronavirus infections” (The Scripps Research Institute, priority 2021, dated 2023) can be followed below.

The structures appear in SMILES notation.

One test has as its system SARS-CoV-2 strain USA-WA1/2020. The experiment in a line: microbe, parasite or virus in culture. In kind it is cell-based. As to conditions: Severe acute respiratory syndrome coronavirus 2, HeLa-ACE2, 24 h, HeLa-ACE2 cells, SARS-CoV-2 infection, 24 h; cells given as a bound; read-out: EC50, uM (Hela).
As for `O=C(N[C@@H](C[C@@H]1CCNC1=O)C(=O)COc1c(F)c(F)cc(F)c1F)C1CCN(C(=O)C2CCCC2)CC1` [Compound 27, l-(cyclopentane-carbonyl)-N-((S)-3-oxo-1-((S)-2-oxopyrrolidin-3-yl)-4-(2,3,5,6-tetrafluorophenoxy)butan-2-yl)piperidine-4-carboxamide], the EC50 was above 1 µM.

Still in this test, the particulars now being: Severe acute respiratory syndrome coronavirus 2, HeLa-ACE2, 24 h, HeLa-ACE2 cells, SARS-CoV-2 infection, 24 h; class symbols; read-out: EC50, uM (Hela).
Consider `CC(C)C[C@H](NC(=O)OCc1ccc(F)cc1)C(=O)N[C@@H](C[C@@H]1CCNC1=O)C(=O)COc1c(F)c(F)cc(F)c1F` [Compound 23, 4-fluorobenzyl ((S)-4-methyl-1-oxo-1-(((S)-3-oxo-1-((S)-2-oxopyrrolidin-3-yl)-4-(2,3,5,6-tetra-fluorophenoxy)butan-2-yl)amino)pentan-2-yl)carbamate], for which the EC50 lay within 0.2 to 0.5 µM.
`CC(C)C[C@H](NC(=O)c1ccc2c(c1)OCO2)C(=O)N[C@@H](C[C@@H]1CCNC1=O)C(=O)COc1c(F)c(F)cc(F)c1F` [Compound 24, N-((S)-4-methyl-1-oxo-1-(((S)-3-oxo-1-((S)-2-oxopyrrolidin-3-yl)-4-(2,3,5,6-tetrafluorophenoxy)butan-2-yl)amino)pentan-2-yl)benzo[d][l,3]dioxole-5-carboxamide]: the EC50 is 0.2 to 0.5 µM.
With `CC(C)C[C@H](NC(=O)C1CCN(C(=O)C2CCCC2)CC1)C(=O)N[C@@H](C[C@@H]1CCNC1=O)C(=O)COc1c(F)c(F)cc(F)c1F` [Compound 25, l-(cyclopentane-carbonyl)-N-((S)-4-methyl-1-oxo-1-(((S)-3-oxo-1-((S)-2-oxopyrrolidin-3-yl)-4-(2,3,5,6-tetrafluorophenoxy)butan-2-yl)amino)pentan-2-yl)piperidine-4-carboxamide], the EC50 lay within 0.5 to 1 µM.
On the same count and under the same terms, to `CC(C)C[C@H](NC(=O)[C@H]1CCCO1)C(=O)N[C@@H](C[C@@H]1CCNC1=O)C(=O)COc1c(F)c(F)cc(F)c1F` [Compound 26, (R)-N-((S)-4-methyl-1-oxo-1-(((S)-3-oxo-1-((S)-2-oxopyrrolidin-3-yl)-4-(2,3,5,6-tetrafluorophenoxy)butan-2-yl)amino)pentan-2-yl)tetrahydrofuran-2-carboxamide] belongs 0.2 to 0.5 µM.
`CC(C)C[C@H](NC(=O)c1cc2cnccc2[nH]1)C(=O)N[C@@H](C[C@@H]1CCNC1=O)C(=O)COc1c(F)c(F)cc(F)c1F` [Compound 29, N-((S)-4-methyl-1-oxo-1-(((S)-3-oxo-1-((S)-2-oxopyrrolidin-3-yl)-4-(2,3,5,6-tetrafluorophenoxy)butan-2-yl)amino)pentan-2-yl)-1H-pyrrolo[3,2-c]pyridine-2-carboxamide]: the EC50 is below 0.05 µM.
With `O=C(Nc1ccccc1)C(=O)N[C@@H](CC1CC1)C(=O)N[C@@H](C[C@@H]1CCNC1=O)C(=O)COc1c(F)c(F)cc(F)c1F` [Compound 30, N1-((S)-3-cyclopropyl-1-oxo-1-(((S)-3-oxo-1-((S)-2-oxopyrrolidin-3-yl)-4-(2,3,5,6-tetrafluorophenoxy)butan-2-yl)amino)propan-2-yl)-N2-phenyloxalamide], the EC50 was below 0.05 µM.
As to `O=C(Nc1ccccc1)C(=O)N[C@@H](CC1CCC1)C(=O)N[C@@H](C[C@@H]1CCNC1=O)C(=O)COc1c(F)c(F)cc(F)c1F` [Compound 31, N1-((S)-3-cyclobutyl-1-oxo-1-(((S)-3-oxo-1-((S)-2-oxopyrrolidin-3-yl)-4-(2,3,5,6-tetra-fluorophenoxy)butan-2-yl)amino)propan-2-yl)-N2-phenyloxalamide], the EC50 is below 0.05 µM.
`CC(C)C[C@H](NC(=O)C(=O)Nc1ccccc1C(F)(F)F)C(=O)N[C@@H](C[C@@H]1CCNC1=O)C(=O)COc1c(F)c(F)cc(F)c1F` [Compound 32]: the EC50 was below 0.05 µM.
The same measure, in the same setting: the same measure for `CC(C)C[C@H](NC(=O)C(=O)Nc1ccccc1C(C)(C)C)C(=O)N[C@@H](C[C@@H]1CCNC1=O)C(=O)COc1c(F)c(F)cc(F)c1F` [Compound 33, N1-(2-(tert-butyl)phenyl)-N2-((S)-4-methyl-1-oxo-1-(((S)-3-oxo-1-((S)-2-oxopyrrolidin-3-yl)-4-(2,3,5,6-tetrafluorophenoxy)butan-2-yl)amino)pentan-2-yl)oxalamide]: below 0.05 µM; for `CC(C)C[C@H](NC(=O)C(=O)Nc1ccc2ccccc2c1)C(=O)N[C@@H](C[C@@H]1CCNC1=O)C(=O)COc1c(F)c(F)cc(F)c1F` [Compound 34, N1-((S)-4-methyl-1-oxo-1-(((S)-3-oxo-1-((S)-2-oxopyrrolidin-3-yl)-4-(2,3,5,6-tetrafluorophenoxy)butan-2-yl)amino)pentan-2-yl)-N2-(naphthalen-2-yl)oxalamide]: 0.05 to 0.2 µM.
Regarding `O=C(Nc1ccccc1)C(=O)N[C@@H](CC1CCCCC1)C(=O)N[C@@H](C[C@@H]1CCNC1=O)C(=O)COc1c(F)c(F)cc(F)c1F` [Compound 35, N1-((S)-3-cyclohexyl-1-oxo-1-(((S)-3-oxo-1-((S)-2-oxopyrrolidin-3-yl)-4-(2,3,5,6-tetrafluorophenoxy)butan-2-yl)amino)propan-2-yl)-N2-phenyloxalamide], the half-maximal effective concentration (EC50) was below 0.05 µM.
On the same count and under the same terms, the same measure for `CC(C)CC[C@H](NC(=O)C(=O)Nc1ccccc1)C(=O)N[C@@H](C[C@@H]1CCNC1=O)C(=O)COc1c(F)c(F)cc(F)c1F` [Compound 36, N1-((S)-5-methyl-1-oxo-1-(((S)-3-oxo-1-((S)-2-oxopyrrolidin-3-yl)-4-(2,3,5,6-tetrafluorophenoxy)butan-2-yl)amino)hexan-2-yl)-N2-phenyloxalamide]: below 0.05 µM.
Consider `Cc1ccccc1NC(=O)C(=O)N[C@@H](CC(C)C)C(=O)N[C@@H](C[C@@H]1CCNC1=O)C(=O)COc1c(F)c(F)cc(F)c1F` [Compound 37, N1-((S)-4-methyl-1-oxo-1-(((S)-3-oxo-1-((S)-2-oxopyrrolidin-3-yl)-4-(2,3,5,6-tetrafluoro-phenoxy)butan-2-yl)amino)pentan-2-yl)-N2-(o-tolyl)oxalamide], for which the EC50 was below 0.05 µM.
`CC(C)C[C@H](NC(=O)C(=O)Nc1ccc(F)cc1)C(=O)N[C@@H](C[C@@H]1CCNC1=O)C(=O)COc1c(F)c(F)cc(F)c1F` [Compound 38, N1-(4-fluorophenyl)-N2-((S)-4-methyl-1-oxo-1-(((S)-3-oxo-1-((S)-2-oxopyrrolidin-3-yl)-4-(2,3,5,6-tetra-fluorophenoxy)butan-2-yl)amino)pentan-2-yl)oxalamide]: the EC50 was below 0.05 µM.
Take `CC(C)C[C@H](NC(=O)C(=O)Nc1ccc(Cl)cc1)C(=O)N[C@@H](C[C@@H]1CCNC1=O)C(=O)COc1c(F)c(F)cc(F)c1F` [Compound 39, N1-(4-chlorophenyl)-N2-((S)-4-methyl-1-oxo-1-(((S)-3-oxo-1-((S)-2-oxopyrrolidin-3-yl)-4-(2,3,5,6-tetrafluorophenoxy)butan-2-yl)amino)pentan-2-yl)oxalamide]: the 50% effective concentration (EC50) lay within 0.05 to 0.2 µM.
Regarding `CC(C)C[C@H](NC(=O)CNc1ccccc1)C(=O)N[C@@H](C[C@@H]1CCNC1=O)C(=O)COc1c(F)c(F)cc(F)c1F` [Compound 40, (S)-4-methyl-N-((S)-3-oxo-1-((S)-2-oxopyrrolidin-3-yl)-4-(2,3,5,6-tetrafluorophenoxy)butan-2-yl)-2-(2-(phenylamino)-acetamido)pentanamide], the EC50 is below 0.05 µM.
As for `CC(C)C[C@H](NC(=O)C(=O)NCCc1ccccc1)C(=O)N[C@@H](C[C@@H]1CCNC1=O)C(=O)COc1c(F)c(F)cc(F)c1F` [Compound 41, N1-((S)-4-methyl-1-oxo-1-(((S)-3-oxo-1-((S)-2-oxopyrrolidin-3-yl)-4-(2,3,5,6-tetrafluorophenoxy)butan-2-yl)amino)pentan-2-yl)-N2-phenethyloxalamide], the EC50 lay within 0.05 to 0.2 µM.
Consider `CC(C)C[C@H](NC(=O)C(=O)NCc1ccccc1)C(=O)N[C@@H](C[C@@H]1CCNC1=O)C(=O)COc1c(F)c(F)cc(F)c1F` [Compound 42, N1-benzyl-N2-((S)-4-methyl-1-oxo-1-(((S)-3-oxo-1-((S)-2-oxopyrrolidin-3-yl)-4-(2,3,5,6-tetrafluoro-phenoxy)butan-2-yl)amino)pentan-2-yl)oxalamide], for which the EC50 fell in the range of 0.05 to 0.2 µM.
With `CC(C)C[C@H](NC(=O)C(=O)Nc1cccc(F)c1)C(=O)N[C@@H](C[C@@H]1CCNC1=O)C(=O)COc1c(F)c(F)cc(F)c1F` [Compound 43, N1-(3-fluorophenyl)-N2-((S)-4-methyl-1-oxo-1-(((S)-3-oxo-1-((S)-2-oxopyrrolidin-3-yl)-4-(2,3,5,6-tetrafluorophenoxy)butan-2-yl)amino)pentan-2-yl)oxalamide], the EC50 was 0.05 to 0.2 µM.
Same read-out and setting: the same measure for `O=C(Nc1ccccc1)C(=O)N[C@@H](CC1CCCC1)C(=O)N[C@@H](C[C@@H]1CCNC1=O)C(=O)COc1c(F)c(F)cc(F)c1F` [Compound 44, N1-((S)-3-cyclopentyl-1-oxo-1-(((S)-3-oxo-1-((S)-2-oxopyrrolidin-3-yl)-4-(2,3,5,6-tetrafluorophenoxy)butan-2-yl)amino)propan-2-yl)-N2-phenyloxalamide]: below 0.05 µM.
In the case of `CC(C)C[C@H](NC(=O)C(=O)Nc1ccccn1)C(=O)N[C@@H](C[C@@H]1CCNC1=O)C(=O)COc1c(F)c(F)cc(F)c1F` [Compound 45, N1-((S)-4-methyl-1-oxo-1-(((S)-3-oxo-1-((S)-2-oxopyrrolidin-3-yl)-4-(2,3,5,6-tetrafluorophenoxy)butan-2-yl)amino)pentan-2-yl)-N2-(pyridin-2-yl)oxalamide], the EC50 lay within 0.05 to 0.2 µM.
Still for that read-out and setting: to `CC(C)C[C@H](NC(=O)C(=O)Nc1ccccc1Cl)C(=O)N[C@@H](C[C@@H]1CCNC1=O)C(=O)COc1c(F)c(F)cc(F)c1F` [Compound 46, N1-(2-chlorophenyl)-N2-((S)-4-methyl-1-oxo-1-(((S)-3-oxo-1-((S)-2-oxopyrrolidin-3-yl)-4-(2,3,5,6-tetrafluorophenoxy)butan-2-yl)amino)pentan-2-yl)oxalamide] belongs below 0.05 µM.
Consider `CC(C)C[C@H](NC(=O)C(=O)Nc1c(F)cccc1F)C(=O)N[C@@H](C[C@@H]1CCNC1=O)C(=O)COc1c(F)c(F)cc(F)c1F` [Compound 47, N1-(2,6-difluorophenyl)-N2-((S)-4-methyl-1-oxo-1-(((S)-3-oxo-1-((S)-2-oxopyrrolidin-3-yl)-4-(2,3,5,6-tetrafluorophenoxy)butan-2-yl)amino)pentan-2-yl)oxalamide], for which the EC50 was below 0.05 µM.

The EC50 is the concentration needed to bring the measured effect to its halfway point.
